The values below come from patent US11345666B2, “Phenyl and pyridinyl substituted imidazoles as modulators of RORγT” (Janssen Pharmaceutica NV, priority 2018, dated 2022).

pIC50, pKd: −log10 of the molar value.

For one test, the target named is full-length human RORγt (Homo sapiens (Human), UniProt P51449). Nature of the test: RORγt (full-length human) reporter assay, conditions A or B. It is filed as cell-based. As to conditions: for pIC50: HEK293T cells, read-out: RORγt (FL) Reporter Assay A or B, IC50; for inhibition at 6 µM: read-out: RORγt (FL) Reporter Assay A or B, % inhibition @ 6 μM, 6 μM compound concentration. An excerpt:
RORγt (Full-Length Human) Reporter Assay:
Cells used in this assay were transiently co-transfected with three different plasmids, one expressing the GAL4-DNA binding domain (DBD)-RORγt fusion protein under control of a CMV promoter (NH2-Gal4-DBD:RORC—COOH in pCMV-BD, Stratagene #211342), and two reporter plasmids—the firefly luciferase reporter under control of a GAL4 promoter (pFR-Luc 2×GAL4) and Renilla luciferase reporter under control of CMV promoter (pRL-CMV, Promega #E2261). […] HEK293T cells were plated at 35,000 per well in 96-well plate in medium of DMEM with 10% FBS. After 18-22 hours incubation, the transfection was carried out by using a PEI solution with 170.5 ng total DNA/well (50 ng pCMV-BD-ROR plus 20 ng of pFR-Luc reporter and 0.5 ng of pRL-CMV reporter plus 100 ng Carrier DNA (Clontech #630440) for each well). 4-6 hours after transfection, cells were treated with compounds for overnight in the medium with final concentration of FBS 1.3% and DMSO 0.1%. After overnight (16 to 20 hours) incubation, media were removed and cells were lysed with […] Glo Lysis Buffer (Promega) for 10-15 minutes followed by 10 minute incubation with 50 μL Dual Glo reagent (Promega) at room temperature. Firefly luciferase luminescence was measured using a BMG Pherastar plate reader. To each well, 50 μL Stop and Glo reagent was added and incubated for 10 minutes at room temperature. Renilla luminescence was measured using a BMG Pherastar plate reader. To calculate the effect of compounds on RORγt activity, firefly values were normalized against values of DMSO only and values of reference compound at saturating concentration, then further normalized against Renilla signals. IC50s were generated by plotting final Renilla normalized data against compound concentration and percent inhibition was calculated against DMSO control.
Cells used in this assay were transiently co-transfected with three different plasmids, one expressing the GAL4-DNA binding domain (DBD)-RORγt fusion protein under control of a CMV promoter (NH2-Gal4-DBD:RORC—COOH in pCMV-BD, Stratagene #211342), and two reporter plasmids—the firefly luciferase reporter under control of a GAL4 promoter (pFR-Luc 2×GAL4) and Renilla luciferase reporter under control of CMV promoter (pRL-CMV, Promega #E2261). […] HEK293T cells were plated at 8750 cells per well in 384-well plate in medium of DMEM with 10% FBS. After 18-22 hours incubation, the transfection was carried out by using a PEI solution with 42.6 ng total DNA/well (12.5 ng pCMV-BD-ROR plus 5 ng of pFR-Luc reporter and 0.125 ng of pRL-CMV reporter plus 25 ng Carrier DNA (Clontech #630440) for each well). 4-6 hours after transfection, cells were treated with compounds for overnight in the medium with final concentration of FBS 1.3% and DMSO 0.1%. After overnight (16 to 20 hours) incubation, media were removed and cells were lysed with 20 μL Glo Lysis Buffer (Promega) for 10-15 minutes followed by 10 minute incubation with 20 μL Dual Glo reagent (Promega) at room temperature. Firefly luciferase luminescence was measured using a BMG Pherastar plate reader. To each well, 20 μL Stop and Glo reagent was added and incubated for 10 minutes at room temperature. Renilla luminescence was measured using a BMG Pherastar plate reader. To calculate the effect of compounds on RORγt activity, firefly values were normalized against values of DMSO only and values of reference compound at saturating concentration, then further normalized against Renilla signals. IC50s were generated by plotting final Renilla normalized data against compound concentration and percent inhibition was calculated against DMSO control.
(Reporter assays use an easily measured gene product as a stand-in for the process of interest.)

In test [1] the target is human RORγt ligand binding domain (RORγt LBD) (Homo sapiens (Human), UniProt P51449). The experiment in a line: RORγt ThermoFluor assay. An excerpt:
ThermoFluor® is a fluorescence based assay that estimates ligand binding affinities by measuring the effect of a ligand on protein thermal stability (Pantoliano, M. W., Petrella, E. C., Kwasnoski, J. D., Lobanov, V. S., Myslik, J., Graf, E., Carver, T., Asel, E., Springer, B. A., Lane, P., and Salemme, F. R. (2001) High-density miniaturized thermal shift assays as a general strategy for drug discovery. J Biomol Screen 6, 429-40, and Matulis, D., Kranz, J. K., Salemme, F. R., and Todd, M. J. (2005) Thermodynamic stability of carbonic anhydrase: measurements of binding affinity and stoichiometry using ThermoFluor. Biochemistry 44, 5258-66). This approach is applicable to a wide variety of systems, and rigorous in theoretical interpretation through quantitation of equilibrium binding constants (KD).
The shift in the melting point described as a ΔTm is proportional to the concentration and affinity of the ligand.
RORγt ThermoFluor® Assay Construct
Nucleotides 850-1635 (SEQ ID NO:2) coding for the wild type human RORγt ligand binding domain (RORγt LBD) were cloned into the pHIS 1 vector, a modified pET E. coli expression vector (Accelagen, San Diego), containing an in-frame N-terminal His-tag and a TurboTEV protease cleavage site (ENLYFQG, SEQ ID NO:3) upstream of the cloned insert sequence. The amino acid sequence for the RORγt construct used in the Thermofluor® assay is shown as SEQ ID NO:4.
ThermoFluor® experiments were carried out using instruments owned by Janssen Research and Development, L.L.C. through its acquisition of 3-Dimensional Pharmaceuticals, Inc. 1,8-ANS (Invitrogen) was used as a fluorescent dye. Protein and compound solutions are dispensed into black 384-well polypropylene PCR microplates (Abgene) and overlayed with silicone oil (1 μL, Fluka, type DC 200) to prevent evaporation.
Bar-coded assay plates are robotically loaded onto a thermostatically controlled PCR-type thermal block and then heated at a typical ramp-rate of 1° C./min for all experiments. Fluorescence was measured by continuous illumination with UV light (Hamamatsu LC6) supplied via fiber optic and filtered through a band-pass filter (380-400 nm; >6 OD cutoff). Fluorescence emission of the entire 384-well plate was detected by measuring light intensity using a CCD camera (Sensys, Roper Scientific) filtered to detect 500±25 nm, resulting in simultaneous and independent readings of all 384 wells. Images were collected at each temperature, and the sum of the pixel intensity in a given area of the assay plate was recorded versus temperature. Reference wells contained RORγt without compounds, and the assay conditions were as follows: • 0.065 mg/mL RORγt • 60 μM 1,8-ANS • 100 mM Hepes, pH 7.0 • 10 mM NaCl • 2.5 mM GSH • 0.002% Tween-20
Project compounds were arranged in a pre-dosed mother plate (Greiner Bio-one) wherein compounds are serially diluted in 100% DMSO by 1:2 from a high concentration of 10 mM over 12 columns within a series (column 12 is a reference well containing DMSO, no compound). The compounds were robotically dispensed directly into assay plates (1×=46 nL) using a Hummingbird capillary liquid handling instrument (Digilab). Following compound dispense, protein and dye in buffer was added to achieve the final assay volume of 3 μL, followed by 1 μL of silicone oil.
The binding affinity was estimated as described previously (Matulis, D., Kranz, J. K., Salemme, F. R., and Todd, M. J. (2005) Thermodynamic stability of carbonic anhydrase: measurements of binding affinity and stoichiometry using ThermoFluor®. Biochemistry 44, 5258-66) using the following thermodynamic parameters of protein unfolding: […]
On the technique in general: In DSF a fluorescence change marks the thermal transition of the protein.

Chain of full-length human RORγt (P51449 other isoform, or with tags, fused parts or gaps): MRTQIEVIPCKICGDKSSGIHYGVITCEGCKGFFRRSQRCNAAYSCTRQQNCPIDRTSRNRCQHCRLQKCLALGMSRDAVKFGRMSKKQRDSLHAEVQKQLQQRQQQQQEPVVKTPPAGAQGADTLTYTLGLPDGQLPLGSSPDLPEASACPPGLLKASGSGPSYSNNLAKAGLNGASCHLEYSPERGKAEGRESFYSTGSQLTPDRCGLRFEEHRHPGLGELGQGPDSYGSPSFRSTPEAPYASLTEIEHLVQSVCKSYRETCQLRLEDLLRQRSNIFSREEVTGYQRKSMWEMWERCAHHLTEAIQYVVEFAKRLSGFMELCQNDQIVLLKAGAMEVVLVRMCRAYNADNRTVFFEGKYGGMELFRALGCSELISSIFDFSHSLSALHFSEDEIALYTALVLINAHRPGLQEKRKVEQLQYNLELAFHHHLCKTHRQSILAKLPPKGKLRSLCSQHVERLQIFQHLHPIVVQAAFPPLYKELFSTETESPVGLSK
Chain of human RORγt ligand binding domain (RORγt LBD) (P51449 other isoform, or with tags, fused parts or gaps): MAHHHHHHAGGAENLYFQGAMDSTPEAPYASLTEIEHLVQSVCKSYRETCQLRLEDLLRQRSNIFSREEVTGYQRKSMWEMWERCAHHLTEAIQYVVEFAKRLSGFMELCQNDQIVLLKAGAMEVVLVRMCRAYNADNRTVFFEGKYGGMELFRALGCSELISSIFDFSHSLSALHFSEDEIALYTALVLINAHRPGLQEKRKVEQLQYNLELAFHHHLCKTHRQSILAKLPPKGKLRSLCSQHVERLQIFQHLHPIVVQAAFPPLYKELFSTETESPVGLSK

Regarding `CCc1nc(C(=O)NC[C@H]2CC[C@H](S(C)(=O)=O)CC2)c(C)n1-c1ccc(CC(C)C(F)(F)F)cc1OC` (single isomer, unassigned) [Example 8], the pIC50 at full-length human RORγt is 6.80. For the same compound, the inhibition at 0.67 µM on full-length human RORγt (read-out: RORγt (FL) Reporter Assay A or B, % inhibition, 0.67 μM compound concentration (****)) came out at 66%.
`CCc1nc(C(=O)NC[C@]2(O)CC[C@@H](S(C)(=O)=O)CC2)c(Cl)n1-c1ncc(CCCC(F)(F)F)cc1OC(F)F` [Example 47, 5-Chloro-1-(3-(difluoromethoxy)-5-(4,4,4-trifluorobutyl)pyridin-2-yl)-2-ethyl-N-(((1s,4s)-1-hydroxy-4-(methylsulfonyl)cyclohexyl)methyl)-1H-imidazole-4-carboxamide]: on full-length human RORγt, the pIC50 was 6.47 and the inhibition at 6 µM came out at 98%.
The like results for `CCc1nc(C(=O)NC[C@H]2CC[C@H](S(C)(=O)=O)CC2)c(Cl)n1-c1ncc(CCCC(F)(F)F)cc1OC(F)F` [Example 48, 5-Chloro-1-(3-(difluoromethoxy)-5-(4,4,4-trifluorobutyl)pyridin-2-yl)-2-ethyl-N-(((1r,4r)-4-(methylsulfonyl)cyclohexyl)methyl)-1H-imidazole-4-carboxamide] were, in that order, 7.30 and 104%.
The like results for `CCc1nc(C(=O)NC[C@]2(O)CC[C@@H](S(C)(=O)=O)CC2)c(C)n1-c1ncc(CC(C)(C)C(F)(F)F)cc1OC(F)F` [Example 50, 1-(3-(Difluoromethoxy)-5-(3,3,3-trifluoro-2,2-dimethylpropyl)pyridin-2-yl)-2-ethyl-N-(((1s,4s)-1-hydroxy-4-(methylsulfonyl)cyclohexyl)methyl)-5-methyl-1H-imidazole-4-carboxamide] were, in that order, 6.92 and 90%.
As for `CCc1nc(C(=O)NC[C@]2(O)CC[C@@H](S(C)(=O)=O)CC2)c(C)n1-c1ncc(CCCC(F)(F)F)cc1OC(F)F` [Example 52, 1-(3-(Difluoromethoxy)-5-(4,4,4-trifluorobutyl)pyridin-2-yl)-2-ethyl-N-(((1s,4s)-1-hydroxy-4-(methylsulfonyl)cyclohexyl)methyl)-5-methyl-1H-imidazole-4-carboxamide], the inhibition at 6 µM on full-length human RORγt turned out to be 78%.
As for `CCc1nc(C(=O)NC[C@H]2CC[C@H](S(C)(=O)=O)CC2)c(Cl)n1-c1ccc(CC(C)(C)C(F)(F)F)c(F)c1` [Example 103, 5-Chloro-2-ethyl-1-(3-fluoro-4-(3,3,3-trifluoro-2,2-dimethylpropyl)phenyl)-N-(((1r,4r)-4-(methylsulfonyl)cyclohexyl)methyl)-1H-imidazole-4-carboxamide], the pKd in test [1] is 8.36.
`CCc1nc(C(=O)NC[C@]2(O)CC[C@@H](S(C)(=O)=O)CC2)c(Cl)n1-c1ccc(CC(C)(C)C(F)(F)F)c(F)c1` [Example 104, 5-Chloro-2-ethyl-1-(3-fluoro-4-(3,3,3-trifluoro-2,2-dimethylpropyl)phenyl)-N-(((1s,4s)-1-hydroxy-4-(methylsulfonyl)cyclohexyl)methyl)-1H-imidazole-4-carboxamide]: in test [1], the pKd is 8.27.
With `CCc1nc(C(=O)NC[C@]2(O)CC[C@@H](S(C)(=O)=O)CC2)c(Cl)n1-c1ccc(CC(C(F)(F)F)C(F)(F)F)c(F)c1` [Example 105, 5-Chloro-2-ethyl-1-(3-fluoro-4-(3,3,3-trifluoro-2-(trifluoromethyl)propyl)phenyl)-N-(((1s,4s)-1-hydroxy-4-(methylsulfonyl)cyclohexyl)methyl)-1H-imidazole-4-carboxamide], on full-length human RORγt (0.22 μM compound concentration (******), read-out: RORγt (FL) Reporter Assay A or B, % inhibition), the inhibition at 0.22 µM came to 80%. Further, the pIC50 at full-length human RORγt is 7.28.
On to `CCc1nc(C(=O)NC[C@]2(O)CC[C@@H](S(C)(=O)=O)CC2)c(Cl)n1-c1ncc(CC(C)(C)CC(F)(F)F)cc1OC(F)F` [Example 107, 5-Chloro-1-(3-(difluoromethoxy)-5-(4,4,4-trifluoro-2,2-dimethylbutyl)pyridin-2-yl)-2-ethyl-N-(((1s,4s)-1-hydroxy-4-(methylsulfonyl)cyclohexyl)methyl)-1H-imidazole-4-carboxamide], for which the inhibition at 3 µM at full-length human RORγt (3 μM compound concentration (*), read-out: RORγt (FL) Reporter Assay A or B, % inhibition) came out at 85%.
For `CCc1nc(C(=O)NC[C@]2(O)CC[C@@H](S(C)(=O)=O)CC2)c(C#N)n1-c1cnc(CCC(F)(F)F)cc1OC` [Example 118, 5-Cyano-2-ethyl-N-(((1s,4s)-1-hydroxy-4-(methylsulfonyl)cyclohexyl)methyl)-1-(4-methoxy-6-(3,3,3-trifluoropropyl)pyridin-3-yl)-1H-imidazole-4-carboxamide], at full-length human RORγt, the pIC50 was 5.62 and the inhibition at 6 µM amounted to 54%.

One may read the pIC50 as the IC50 on a negative log10 scale, so that one unit is a factor of ten. Broadly, the pKd is the negative decadic logarithm of the Kd, by convention in mol/L. The low end stands for a high Kd, the high end for a low Kd.
